In one test the target is T1, IRAP (Homo sapiens, UniProt Q9UIQ6).
T1 construct: expressed in transfected cells; host or cells: HEK 293T
Briefly: IRAP enzymatic assay (hydrolysis of Leu-MCA). The note with it: substrate Leu-MCA, solubilized membranes of HEK 293T cells transfected with IRAP. It counts as biochemical. Here is the method: An in vitro enzymatic assay was used to initially assess IRAP inhibitory activity.
After solubilization, the membranes were pelleted by centrifugation at 23,100 g for 15 min at 4° C., and the supernatant was reserved as the source of IRAP activity. The enzymatic activities of IRAP were determined by the hydrolysis of the synthetic substrate Leu-MCA (Sigma-Aldrich, Missouri, USA) monitored by the release of a fluorogenic product, MCA, at excitation and emission wavelengths of 380 and 440 nm, respectively. Assays were performed in 96-well plates; each well contains between […] solubilized membrane protein, a range of concentration of substrate in a final volume of 100 μL 50 mM Tris-HCl buffer (pH 7.4). Non-specific hydrolysis of the substrate was corrected by subtracting the emission from incubations with membranes transfected with empty vector. Reactions proceeded at 37° C. for 30 min within a thermostatted FLEX station fluorescence microplate reader (Molecular Devices, Sunnyvale, Calif.). […] Km values of IRAP for Leu-MCA were determined from the kinetic studies. […] All data obtained were from at least three separate experiments performed in duplicate.

In the next test the target is T2, Aminopeptidase N (Sus scrofa, UniProt P15145).
T2 construct: purchased Sigma Aldrich
T2 sequence (P15145 1-963): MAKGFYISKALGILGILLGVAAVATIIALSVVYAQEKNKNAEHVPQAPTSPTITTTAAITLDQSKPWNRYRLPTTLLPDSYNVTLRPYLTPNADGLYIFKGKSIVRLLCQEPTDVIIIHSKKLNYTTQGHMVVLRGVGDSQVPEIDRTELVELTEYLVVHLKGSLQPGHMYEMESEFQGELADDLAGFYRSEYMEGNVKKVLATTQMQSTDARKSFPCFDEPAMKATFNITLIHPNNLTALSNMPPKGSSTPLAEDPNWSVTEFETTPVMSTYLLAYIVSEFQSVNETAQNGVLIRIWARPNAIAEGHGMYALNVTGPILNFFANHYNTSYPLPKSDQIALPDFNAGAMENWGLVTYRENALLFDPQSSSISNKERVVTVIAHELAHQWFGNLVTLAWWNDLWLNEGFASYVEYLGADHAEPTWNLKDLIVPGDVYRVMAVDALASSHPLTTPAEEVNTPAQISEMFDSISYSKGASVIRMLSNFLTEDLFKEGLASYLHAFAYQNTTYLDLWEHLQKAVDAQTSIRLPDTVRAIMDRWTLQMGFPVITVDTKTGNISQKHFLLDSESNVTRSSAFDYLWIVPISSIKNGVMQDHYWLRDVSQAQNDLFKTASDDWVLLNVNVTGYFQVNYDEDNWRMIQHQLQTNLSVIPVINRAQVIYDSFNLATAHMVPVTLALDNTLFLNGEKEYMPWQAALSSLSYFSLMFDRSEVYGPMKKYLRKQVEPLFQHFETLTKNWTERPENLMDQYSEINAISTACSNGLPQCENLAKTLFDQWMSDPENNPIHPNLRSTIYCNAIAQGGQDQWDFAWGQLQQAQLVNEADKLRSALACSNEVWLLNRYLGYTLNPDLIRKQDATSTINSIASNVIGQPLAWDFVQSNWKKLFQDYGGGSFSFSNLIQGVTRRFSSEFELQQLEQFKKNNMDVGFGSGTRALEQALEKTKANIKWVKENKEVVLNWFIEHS
Briefly: Aminopeptidase N assay. Particulars: 10 μM; read-out: % inhibition of the catalytic activity of the enzyme. Format: biochemical. Here is the method: Aminopeptidase N assay. 5 mU of aminopeptidase M (Sigma Aldrich) was incubated with 100 μM of substrate alanine-β-naphthylamide (Sigma Aldrich) in Tris buffered saline (50 mM Tris-HCl, 150 mM NaCl pH 7.5) at 25° C. IRAP inhibitors (1-10 μM) were added after 1 minute and fluorescence at 405 nm was followed.
(§1) Limited inhibition of control enzymes was observed.

Test [1] has as its target Angiotensin converting enzyme 1 (Homo sapiens, UniProt P12821). Briefly: Angiotensin converting enzyme assay. Format: biochemical. The note with it: read-out: % inhibition of the catalytic activity of the enzyme. Here is the method:
Angiotensin converting enzyme assay. The enzyme (final concentration 0.02 pmol/100 L) was incubated with 200 μL of assay solution that included 5 mmol/L HHL in 100 mmol/L potassium buffer (pH 8.3) that contained 300 mmol/L NaCl and 10^−4 mol/L ZnSO4 for 3 hours at 37° C. The enzymatic reaction was stopped by the addition of 1.5 mL of 0.28N NaOH, 100 μL of o-phthaldialdehyde (20 mg/mL) in methanol was added and the fluorescent reaction stopped by the addition of 200 μL of 3N HCl. The product, L-His-Leu, was measured fluorometrically (360 nm excitation and 500 nm emission).
as §1

Another test deals with rats. In words: Novel object recognition task. It counts as in vivo, rat. Particulars: for Recognition Index: rats, n=10/group. Here is the method: All experiments were performed according to the National Health and Medical Research Council of Australia “Code of practise for the care and use of animals for scientific purposes”. Male Spraque Dawley rats, (250-270 g) are housed individually and given water and standard rat chow ad libitum. On the day of surgery, the rats were anaesthetized with 5% isofluorane, placed in a stereotaxic frame and maintained on 2% isofluorane for the duration of the cannula implantation procedure. The rats were stereotaxically implanted with chronic indwelling cannula (Plastics One) into the cerebral lateral ventricles using the following flat skull coordinates 0.8 mm posterior to Bregma, 1.55 mm lateral to midline and 3.5 mm ventral to the dura. The cannula was then secured to the skull with stainless steel screws and dental cement. Seven days following surgery, proper cannula placement was verified by a bolus injection of angiotensin II (1 nmol/μl).
The rats are allowed at least 5 days post-operative recovery prior to use in any behavioural paradigms. On the day of the acquisition trial, the rats were habituated for 5 min in the testing box (made from grey perspex of dimensions 60 cm width×60 cm length×50 cm height) in diffuse dim light and then returned to their home cage. The animals were then rested for at least 2 h and then injected with 1 nmol or 0.1 nmol Compound 2 in 2 μl of 10% dimethyl sulfoxide (DMSO). Control animals received 2 μl of 10% DMSO. Following drug administration, the rats were returned to their home cage for 5 min and then placed in the testing box facing the opposite direction to 2 identical objects that have been secured to the floor in adjacent corners of the box. The rats were allowed 5 min to explore the objects and the definition of explore is that the animal's nose is less than 2 cm from object when it is facing the object. […] The recognition index was determined as the time spent exploring the novel object minus the time spent on the familiar object divided by the time spent on both object.

Test [2] has as its system Glucose-6-phosphate dehydrogenase/glucose hexokinase. In words: Glucose-6-phosphate dehydrogenase and hexokinase activity, fluorimetric assay. Particulars: 100 μM.
Experimental: Glucose-6-phosphate dehydrogenase and hexokinase activity. Glucose-6-phosphate dehydrogenase and hexokinase activity in the absence and presence of the compounds was determined in a fluorimetric assay. Ten mM Tris MgCl2 buffer (total volume of 200 ml) containing glucose-6-phosphate dehydrogenase, 0.3M ATP, 30 mM NADP+ was added to 96 well microtitre plate together with 20 μl of compound, a reading at excitation 350 nm and emission 510 nm was taken followed by the addition of hexokinase and another reading.

SMILES strings stand for the structures.

T1 sequence (Q9UIQ6 whole entry): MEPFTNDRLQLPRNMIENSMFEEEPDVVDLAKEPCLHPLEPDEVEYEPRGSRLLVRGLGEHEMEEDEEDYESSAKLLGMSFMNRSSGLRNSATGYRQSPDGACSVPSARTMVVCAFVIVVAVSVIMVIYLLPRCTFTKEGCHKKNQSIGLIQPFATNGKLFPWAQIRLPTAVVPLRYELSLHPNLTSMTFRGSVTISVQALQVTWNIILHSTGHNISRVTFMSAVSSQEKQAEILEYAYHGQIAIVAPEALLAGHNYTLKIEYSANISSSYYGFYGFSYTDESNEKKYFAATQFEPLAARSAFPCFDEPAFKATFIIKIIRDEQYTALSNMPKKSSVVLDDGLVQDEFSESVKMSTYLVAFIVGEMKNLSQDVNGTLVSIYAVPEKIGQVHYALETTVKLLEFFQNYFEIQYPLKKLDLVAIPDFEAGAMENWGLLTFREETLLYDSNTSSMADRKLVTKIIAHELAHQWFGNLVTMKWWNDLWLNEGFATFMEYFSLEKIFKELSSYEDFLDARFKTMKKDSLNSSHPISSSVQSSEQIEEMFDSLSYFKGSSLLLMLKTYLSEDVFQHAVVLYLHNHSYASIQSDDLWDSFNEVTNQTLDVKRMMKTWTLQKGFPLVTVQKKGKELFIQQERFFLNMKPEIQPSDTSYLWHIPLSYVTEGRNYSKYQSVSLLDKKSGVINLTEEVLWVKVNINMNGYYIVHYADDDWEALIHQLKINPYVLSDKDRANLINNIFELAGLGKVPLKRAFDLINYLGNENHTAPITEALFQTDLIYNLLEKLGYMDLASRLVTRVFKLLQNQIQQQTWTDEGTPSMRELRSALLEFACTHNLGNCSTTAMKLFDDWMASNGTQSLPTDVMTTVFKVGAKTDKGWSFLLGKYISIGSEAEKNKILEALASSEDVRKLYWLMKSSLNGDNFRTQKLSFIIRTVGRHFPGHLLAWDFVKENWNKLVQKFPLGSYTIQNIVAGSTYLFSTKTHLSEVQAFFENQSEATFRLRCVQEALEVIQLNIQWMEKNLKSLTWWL
Chain of Angiotensin converting enzyme 1 (P12821 30-1306): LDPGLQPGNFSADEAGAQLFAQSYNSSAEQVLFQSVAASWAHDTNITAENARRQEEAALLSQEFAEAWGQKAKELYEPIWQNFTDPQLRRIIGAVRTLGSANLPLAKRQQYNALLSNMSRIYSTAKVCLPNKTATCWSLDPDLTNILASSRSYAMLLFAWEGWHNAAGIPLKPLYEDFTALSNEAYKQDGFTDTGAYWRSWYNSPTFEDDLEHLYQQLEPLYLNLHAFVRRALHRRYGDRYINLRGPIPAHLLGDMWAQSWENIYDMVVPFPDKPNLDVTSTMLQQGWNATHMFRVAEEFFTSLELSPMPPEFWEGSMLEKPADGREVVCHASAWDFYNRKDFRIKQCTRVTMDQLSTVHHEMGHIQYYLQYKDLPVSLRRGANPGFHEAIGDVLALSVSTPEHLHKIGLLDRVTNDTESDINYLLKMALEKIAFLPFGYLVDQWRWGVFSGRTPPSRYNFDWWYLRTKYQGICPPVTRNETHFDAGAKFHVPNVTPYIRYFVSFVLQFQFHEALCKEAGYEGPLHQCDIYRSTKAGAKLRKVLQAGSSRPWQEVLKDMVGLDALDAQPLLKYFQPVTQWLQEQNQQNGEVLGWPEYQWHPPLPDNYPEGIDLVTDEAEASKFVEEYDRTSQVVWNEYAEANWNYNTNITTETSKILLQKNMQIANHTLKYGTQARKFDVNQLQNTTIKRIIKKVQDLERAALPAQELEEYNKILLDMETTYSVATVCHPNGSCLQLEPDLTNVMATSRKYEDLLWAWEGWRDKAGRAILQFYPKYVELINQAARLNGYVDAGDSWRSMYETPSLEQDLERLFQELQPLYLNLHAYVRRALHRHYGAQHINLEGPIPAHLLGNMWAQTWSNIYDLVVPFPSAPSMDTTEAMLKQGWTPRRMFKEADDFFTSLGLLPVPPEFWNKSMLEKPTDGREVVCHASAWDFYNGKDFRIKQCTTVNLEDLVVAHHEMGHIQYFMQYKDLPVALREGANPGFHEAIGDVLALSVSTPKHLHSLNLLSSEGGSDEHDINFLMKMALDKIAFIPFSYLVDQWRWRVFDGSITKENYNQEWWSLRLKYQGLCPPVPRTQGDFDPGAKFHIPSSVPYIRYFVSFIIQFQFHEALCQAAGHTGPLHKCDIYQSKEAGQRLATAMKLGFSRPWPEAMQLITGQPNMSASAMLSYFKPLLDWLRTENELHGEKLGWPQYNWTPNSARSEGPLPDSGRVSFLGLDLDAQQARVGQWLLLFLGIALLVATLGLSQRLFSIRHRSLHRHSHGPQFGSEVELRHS

As a reminder, the IC50 is the midpoint of a concentration-inhibition curve. High values mean lower potency, low ones higher potency. For orientation: inhibition means the percentage by which the read-out fell short of the control. `CCOC(=O)C1=C(NC(C)=O)Oc2cc(O)ccc2C1c1cccnc1` (stereo not drawn) [Compound 2, Ethyl 2-(acetylamino)-7-hydroxy-4-pyridin-3-yl-4H-chromene-3-carboxylate] returned an IC50 on IRAP of 790 nM. The Ki at IRAP (calculated from IC50=Ki(1+[S]/Km), read-out: K1) was 480 nM. The inhibition at 10 µM at Aminopeptidase N is 13%; in test [1] (10 μM), 9%. Besides, the inhibition at 100 µM in test [1] (100 μM) turned out to be 3%. The “Recognition Index” value is on record as 35.82 ± 7.30 in the test with rats (0.1 nmol intracerebroventricularly) and 45.09 ± 9.97 in the test with rats (1 nmol intracerebroventricularly). Further, in the test with rats (1 and 0.1 nmole intracerebroventricularly, after 24 h, p<0.05), the “recognition of a novel object compared to vehicle treated control rats” value is reported as “better recognition of a novel object”. Besides, in test [2], the “% inhibition of the catalytic activity of the enzyme” value turned out to be 0%.
